According to patent US8871756B2 (Hoffmann-La Roche Inc., priority 2011, dated 2014):

Tested on: RSV Long strain
Test: Viral cytopathic effect (CPE) assay, anti-RSV activity
Assay type: cell-based, Respiratory Syncytial Virus
Conditions: human respiratory syncytial virus, 144 h, RSV Long strain (ATCC); cell viability after 6 days, Cell Counting kit-8
Experimental: Viral cytopathic effect (CPE) assay: To measure anti-RSV activity of compounds, 96-well plates are seeded with 6×10^3 cells per well in Dulbecco's modified Eagle's medium (DMEM) containing 10% fetal bovine serum (FBS). Cells are infected the next day with sufficient RSV Long strain (ATCC) to produce an approximately 80-90% cytopathic effect after 6 days, in the presence of serial half-log diluted compound in a total volume of 200 μL per well. The viability of cells is assessed after 6 days using Cell Counting kit-8 (Dojindo Molecular Technologies). The absorbance at 450 nm and referenced at 630 nm is measured to determine 50% effective concentration (EC50).
The compounds of the present invention were tested for their anti-RSV activity, and the activation as described herein. The Examples were tested in the above assay and found to have EC50 of about 0.0001 μM to about 10 μM.

Structure (SMILES) | EC50 [µM]
Cc1ccc2nc(N3CCS(=O)(=O)c4ccccc4C3)cc(N[C@@H]3CCCC[C@H]3N)c2c1 (relative stereo) [Example 3-15, trans-N-[2-(1,1-Dioxido-2,3-dihydro-1,4-benzothiazepin-4(5H)-yl)-6-methylquinolin-4-yl]cyclohexane-1,2-diamine] | 0.482
CO[C@@H]1CN(c2cc(N3CCS(=O)(=O)c4ccccc4C3)nc3ccc(C)cc23)C[C@H]1N (relative stereo) [Example 8-3, trans-1-[2-(1,1-Dioxido-2,3-dihydro-1,4-benzothiazepin-4(5H)-yl)-6-methylquinolin-4-yl]-4-methoxypyrrolidin-3-amine] | 0.9
Cc1ccc2nc(N3CCS(=O)(=O)c4ccccc4C3)cc(N[C@@H]3CCC[C@H]3N)c2c1 (relative stereo) [Example 15-5, trans-N-[2-(1,1-Dioxido-2,3-dihydro-1,4-benzothiazepin-4(5H)-yl)-6-methylquinolin-4-yl]cyclopentane-1,2-diamine] | 0.74
Cc1ccc2nc(N3CCS(=O)(=O)c4ccccc4C3)cc(N3C[C@@H](N)[C@H](O)C3)c2c1 (relative stereo) [Example 19-3, trans-4-Amino-1-[2-(1,1-dioxido-2,3-dihydro-1,4-benzothiazepin-4(5H)-yl)-6-methylquinolin-4-yl]pyrrolidin-3-ol] | 0.006
N[C@@H]1CN(c2cc(N3CCS(=O)(=O)c4ccccc4C3)nc3ccc(Cl)cc23)C[C@H]1F (relative stereo) [Example 19-5, trans-1-[6-Chloro-2-(1,1-dioxido-2,3-dihydro-1,4-benzothiazepin-4(5H)-yl)quinolin-4-yl]-4-fluoropyrrolidin-3-amine] | 3.07
N[C@@H]1CN(c2cc(N3CC[S+]([O-])c4ccccc4C3)nc3ccc(Cl)cc23)C[C@H]1F (relative stereo) [Example 19-7, trans-1-[6-Chloro-2-(1-oxido-2,3-dihydro-1,4-benzothiazepin-4(5H)-yl)quinolin-4-yl]-4-fluoropyrrolidin-3-amine] | 6.86
N[C@@H]1CN(c2cc(N3CCS(=O)(=O)c4ccccc4C3)nc3ccncc23)C[C@H]1O (relative stereo) [Example 24, trans-4-Amino-1-[2-(1,1-dioxido-2,3-dihydro-1,4-benzothiazepin-4(5H)-yl)-1,6-naphthyridin-4-yl]pyrrolidin-3-ol] | 0.016
Cc1ccc2nc(N3CCS(=O)(=O)c4ccccc4C3)cc(N[C@@H]3CNC[C@H]3O)c2c1 (relative stereo) [Example 28-3, trans-4-{[2-(1,1-Dioxido-2,3-dihydro-1,4-benzothiazepin-4(5H)-yl)-6-methylquinolin-4-yl]amino}pyrrolidin-3-ol] | 0.001
Cc1ccc2nc(N3CC[S+]([O-])c4ccccc4C3)cc(N[C@@H]3CNC[C@H]3F)c2c1 (relative stereo) [Example 28-5, N-[trans-4-Fluoropyrrolidin-3-yl]-6-methyl-2-(1-oxido-2,3-dihydro-1,4-benzothiazepin-4(5H)-yl)quinolin-4-amine] | 0.003
Cc1ccc2nc(N3CCS(=O)(=O)c4ccccc4C3)cc(N3C[C@@H]4OC(N)=N[C@@H]4C3)c2c1 (relative stereo) [Example 38-5, cis-5-[2-(1,1-Dioxido-2,3-dihydro-1,4-benzothiazepin-4(5H)-yl)-6-methylquinolin-4-yl]-4,5,6,6a-tetrahydro-3aH-pyrrolo[3,4-d][1,3]oxazol-2-amine] | 6.65

Results, then the compound that gave them:

EC50 [µM] | Structure (SMILES)
0.064 | CO[C@@H]1CNC[C@H]1Nc1cc(N2CCS(=O)(=O)c3ccccc3C2)nc2ccc(C)cc12 (relative stereo) [Example 8-4, 2-(1,1-Dioxido-2,3-dihydro-1,4-benzothiazepin-4(5H)-yl)-N-[trans-4-methoxypyrrolidin-3-yl]-6-methylquinolin-4-amine]
0.026 | Cc1ccc2nc(N3CCS(=O)(=O)c4ccccc4C3)cc(N3C[C@@H](O)[C@@H](N)C3)c2c1 (relative stereo) [Example 13, cis-4-amino-1-[2-(1,1-Dioxido-2,3-dihydro-1,4-benzothiazepin-4(5H)-yl)-6-methylquinolin-4-yl]pyrrolidin-3-ol]
0.043 | Cc1ccc2nc(N3CC[S+]([O-])c4ccccc4C3)cc(N3C[C@@H](N)[C@H](O)C3)c2c1 (relative stereo) [Example 19-1, trans-4-Amino-1-[6-methyl-2-(1-oxido-2,3-dihydro-1,4-benzothiazepin-4(5H)-yl)quinolin-4-yl]pyrrolidin-3-ol]
0.054 | N[C@@H]1CN(c2cc(N3CCS(=O)(=O)c4ccccc4C3)nc3ccc(Cl)cc23)C[C@H]1O (relative stereo) [Example 19-6, trans-4-Amino-1-[6-chloro-2-(1,1-dioxido-2,3-dihydro-1,4-benzothiazepin-4(5 H)-yl)quinolin-4-yl]pyrrolidin-3-ol]
0.007 | O=S1(=O)CCN(c2cc(N[C@@H]3CNC[C@H]3O)c3ccccc3n2)Cc2ccccc21 (relative stereo) [Example 28-2, trans-4-{[2-(1,1-Dioxido-2,3-dihydro-1,4-benzothiazepin-4(5H)-yl)quinolin-4-yl]amino}pyrrolidin-3-ol]
0.001 | Cc1ccc2nc(N3CCS(=O)(=O)c4ccccc4C3)cc(N[C@H]3CNC[C@H]3O)c2c1 (relative stereo) [Example 28-4, cis-4-{[2-(1,1-Dioxido-2,3-dihydro-1,4-benzothiazepin-4(5H)-yl)-6-methylquinolin-4-yl]amino}pyrrolidin-3-ol]
0.186 | Cc1ccc2nc(N3CC[S+]([O-])c4ccccc4C3)nc(N3C[C@@H](N)[C@H](F)C3)c2c1 (relative stereo) [Example 62-7, trans-4-Fluoro-1-[6-methyl-2-(1-oxido-2,3-dihydro-1,4-benzothiazepin-4(5H)-yl)quinazolin-4-yl]pyrrolidin-3-amine]
0.25 | Cc1ccc2nc(N3CCS(=O)(=O)c4ccccc4C3)cc(N3C[C@@H](N)[C@H](F)C3)c2c1 (relative stereo) [Example 78-2, trans-1-[2-(1,1-Dioxido-2,3-dihydro-1,4-benzothiazepin-4(5H)-yl)-6-methylquinolin-4-yl]-4-fluoropyrrolidin-3-amine]
0.009 | Cc1ccc2nc(N3CC[S+]([O-])c4ccccc4C3)nc(N[C@@H]3CNC[C@H]3F)c2c1 (relative stereo) [Example 92-1, N-(trans-4-Fluoropyrrolidin-3-yl)-6-methyl-2-(1-oxido-2,3-dihydro-1,4-benzothiazepin-4(5H)-yl)quinazolin-4-amine]
0.019 | Cc1ccc2nc(N3CCS(=O)(=O)c4ccccc4C3)nc(N[C@@H]3CNC[C@H]3F)c2c1 (relative stereo) [Example 92-2, N-(trans-4-Fluoropyrrolidin-3-yl)-6-methyl-2-(1,1-dioxido-2,3-dihydro-1,4-benzothiazepin-4(5H)-yl)quinazolin-4-amine]
0.588 | Cc1ccc2nc(N3CCC(F)(F)c4ccccc4C3)cc(N3C[C@@H](N)[C@H](O)C3)c2c1 (relative stereo) [Example 111-11, trans-4-Amino-1-[2-(5,5-difluoro-1,3,4,5-tetrahydro-2H-2-benzazepin-2-yl)-6-methylquinolin-4-yl]pyrrolidin-3-ol]
